Read-outs that look alike come from different tables or passages of the source.
Columns and labels:
[1] = system: HCT-116 (human colon carcinoma); test: PI3K viability assay, HCT-116 cells; format: cell-based
Procedure: (§1) PI3K viability assays were carried out on the payloads and conjugates. HCT-116 (human colon carcinoma), NCI-H460 (human non-small cell lung carcinoma), and NCI-H1048 (small cell lung cancer) cells were treated with conjugates and payloads for 4 hours. After 4 hours, compounds were washed out and cells assayed for viability 72 hrs post wash out.

[2] = system: NCI-H460 (human non-small cell lung carcinoma); test: PI3K viability assay, NCI-H460 cells; format: cell-based
Procedure: as §1

[3] = system: HCT-116, NCI-H460, and NCI-H1048 cells; test: PI3K viability assays, summary over the three cell lines; format: cell-based, human; conditions: 4 hours treatment, viability 72 hrs post wash out
Procedure: as §1

Caspase-9 = test: PI3K Caspase-9 assay with HCT-116 cells; format: cell-based, human; conditions: 4 hour treatment, assayed 24, 48, 72 hrs
Procedure: Caspase-9 is activated during apoptosis and is an indicator of apoptosis and cytokine processing. PI3K Caspase-9 assay was conducted with HCT-116 cells. HCT-116 cells were treated with conjugates and payloads for 4 hours. After 4 hours, compounds were washed out and cells were assayed for Caspase-9 24, 48, 72, and 144 hrs. Untreated cells were not viable at 144 hrs. Caspase-9 levels 24 hours, 48 hours, and 72 hours after 4 hour treatment with Compound 10, Compound 12, Compound 13, PF-0461502, Compound 11, T-1634, and BAY80-6946 were shown in FIG. 3.

[4] = system: NCI-H1048 (small cell lung cancer); test: PI3K viability assay, NCI-H1048 cells; format: cell-based; conditions: Homo sapiens
Procedure: as §1

[5] = Stability of PARP inhibiting (olaparib) conjugates in plasma and tumor tissue, release of olaparib; format: in vitro ADME; conditions: for Release of olaparib in plasma and tumor: plasma and tumor tissues, FIG. 1A-E
Procedure: Stabilities of conjugates comprising PARP inhibitor olaparib and HSP90 binding moieties were studied and the conversions of the conjugates to Olaparib were monitored.
In one study, concentrations of Compounds 4, 5, 6 and olaparib released from them in plasma and tumor tissue were monitored (FIG. 1A, FIG. 1B, and FIG. 1C). The linkers were cleaved to release olaparib, thus concentrations of olaparib increased over time. Half times of Compounds 4, 5, and 6 were calculated. […]

[6] = Stability of PI3K inhibiting conjugates at 37° C. in plasma and tumor homogenates
Source text: Stabilities of conjugates comprising PI3K inhibitors and HSP90 binding moieties were studied.

[7] = In vivo tumor PK study, MDA-MB-231 breast cancer tumor line mouse model
Procedure: (§2) A tumor PK study was conducted with HSP90-binding conjugate Compound 12 in a MDA-MB-231 breast cancer tumor line mouse model. The payload on Compound 12 is the PI3K inhibitor PI-103. Both PI-103 and Compound 12 were given as a single dose at 0 hours to separate groups of mice and their concentrations in tumors were collected over time.

[8] = In vivo tumor PK study, HCT116 colon cancer tumor line mouse model; conditions: single dose at 0 hours, FIG. 4
Procedure: as §2, with “HCT116 colon” for “MDA-MB-231 breast”

[9] = HCT-116, read-out: IC50 HCT-116 Run 2
[10] = NCI-H460, read-out: IC50 NCI-H460 Run 2
[11] = NCI-H1048, read-out: IC50 NCI-H1048 Run 2
[12] = plasma, Table 3, read-out: Plasma t1/2 (converted)
[13] = tumor tissue, Table 3, read-out: Tumor t1/2 (converted)
[14] = HCT-116, 4 hours treatment, wash out, viability 72 hrs post wash out, Run 1, read-out: IC50 HCT-116 Run 1
[15] = NCI-H460, 4 hours treatment, wash out, viability 72 hrs post wash out, Run 1, read-out: IC50 NCI-H460 Run 1
[16] = NCI-H1048, 4 hours treatment, wash out, viability 72 hrs post wash out, Run 1, read-out: IC50 NCI-H1048 Run 1
[17] = plasma, Table 1, read-out: Plasma t1/2 (converted)
[18] = tumor tissue, Table 1, read-out: Tumor t1/2 (converted)
[19] = HCT-116, 4 hours treatment, wash out, viability 72 hrs post wash out, Run 2, read-out: IC50 HCT-116 Run 2
[20] = NCI-H460, 4 hours treatment, wash out, viability 72 hrs post wash out, Run 2, read-out: IC50 NCI-H460 Run 2
[21] = NCI-H1048, 4 hours treatment, wash out, viability 72 hrs post wash out, Run 2, read-out: IC50 NCI-H1048 Run 2

In the case of `CC(C)c1cc(-c2nnc(O)n2-c2ccc(CN3CCN(C(=O)NC(CSSCCNC(=O)Oc4cccc(-c5nc(N6CCOCC6)c6oc7ncccc7c6n5)c4)C(N)=O)CC3)cc2)c(O)cc1O` (stereo not drawn) [Compound 13], the IC50 [1, 9] is reported as 10.7 µM, the IC50 [2, 10] is reported as 8.2 µM and the “Activity in viability assays relative to payload” value [3] is reported as “retained activity similar to PI-103 payload”. The Caspase-9 signal (Caspase-9) was “Lack or decrease in signal” and the IC50 [4, 11] was 2.9 µM.

In the case of `CC(C)c1cc(-c2nnc(O)n2-c2ccc(CN3CCN(CCC(C)(C)SSCCOC(=O)N(CCN(C)C)Cn4nc(Cc5ccc(F)c(C(=O)N6CCN(C(=O)C7CC7)CC6)c5)c5ccccc5c4=O)CC3)cc2)c(O)cc1O` [Compound 7], the “Release of olaparib in plasma and tumor” value [5] is reported as “release olaparib in plasma and tumor”, the half-life [5, 12] is reported as 2580 min and the half-life [5, 13] is reported as 240 min.

With `COc1ncc(-c2ccc3nccc(-c4ccnnc4)c3c2)cc1NS(=O)(=O)c1ccc(F)cc1F` [GSK-2126458, Omipalisib, reference compound] the IC50 [1, 14] was 1.5 µM, the IC50 [2, 15] was 0.19 µM and the IC50 [4, 16] was 0.21 µM.

In the case of `CC(C)c1cc(-c2nnc(O)n2-c2ccc3c(ccn3CCC3CCN(CCCSSCCOC(=O)N(CCN(C)C)Cn4nc(Cc5ccc(F)c(C(=O)N6CCN(C(=O)C7CC7)CC6)c5)c5ccccc5c4=O)CC3)c2)c(O)cc1O` [Compound 6], the “Release of olaparib in plasma and tumor” value [5] is reported as “release olaparib in plasma and tumor”, the half-life [5, 17] is reported as 288 min and the half-life [5, 18] is reported as 16.2 min.

`COc1ccc(-c2cc3c(C)nc(N)nc3n([C@H]3CC[C@H](OCCOC(=O)N4CCC(CCn5ccc6cc(-n7c(O)nnc7-c7cc(C(C)C)c(O)cc7O)ccc65)CC4)CC3)c2=O)cn1` [Compound 11] gave an IC50 [1, 14] of 10.2 µM, an IC50 [1, 19] of 5.59 µM and an IC50 [2, 15] of 3.64 µM. For the same compound, the IC50 [2, 20] was 3.66 µM, the IC50 [4, 16] was 1.77 µM and the IC50 [4, 21] was 1.99 µM. The “Cleavage of carbamate groups” value [6] was “cleaved in plasma by carboxylesterase” and the “Stability in plasma versus tumor homogenates” value [6] was “less stable in plasma than in tumor homogenates”.

In the case of `CC(C)c1cc(-c2nnc(O)n2-c2ccc3c(ccn3CCC3CCN(CCC(C)(C)SSCCOC(=O)NCn4nc(Cc5ccc(F)c(C(=O)N6CCN(C(=O)C7CC7)CC6)c5)c5ccccc5c4=O)CC3)c2)c(O)cc1O` [Compound 4], the “Release of olaparib in plasma and tumor” value [5] is reported as “release olaparib in plasma and tumor”, the half-life [5, 17] is reported as 270 min and the half-life [5, 18] is reported as 38.4 min.

With `CC(C)c1cc(-c2nnc(O)n2-c2ccc3c(ccn3CCC3CCN(CCC(C)(C)SSCCOC(=O)N(CCN(C)C)Cn4nc(Cc5ccc(F)c(C(=O)N6CCN(C(=O)C7CC7)CC6)c5)c5ccccc5c4=O)CC3)c2)c(O)cc1O` [Compound 5] the “Relative stability in plasma and tumor” value ([5]; plasma and tumor) was “more stable than Compound 4 and Compound 6 in both plasma and tumor”, the “Release of olaparib in plasma and tumor” value [5] was “release olaparib in plasma and tumor” and the half-life [5, 17] was 2100 min. For the same compound, the half-life [5, 18] was 270 min.

For `Oc1cccc(-c2nc(N3CCOCC3)c3oc4ncccc4c3n2)c1` [PI-103, reference compound], the “Concentrations in tumors over time” value ([7]; mouse, in vivo) was “detected at 1 hour and then fell to a low level at 24 h”, the IC50 [1, 14] was ~16500 µM and the IC50 [2, 15] was 2.85 µM. For the same compound, the IC50 [2, 20] was 4.34 µM, the “Concentrations in tumors over time” value [8] was “detected at 1 hour and then fell below limit of detection” and the IC50 [4, 16] was 1.94 µM. The IC50 [4, 21] was 2.5 µM.

For `CC(C)c1cc(-c2nnc(O)n2-c2ccc(CN3CCN(C(=O)Oc4cccc(-c5nc(N6CCOCC6)c6oc7ncccc7c6n5)c4)CC3)cc2)c(O)cc1O` [Compound 12], the “Concentrations in tumors over time” value ([7]; single dose at 0 hours, MDA-MB-231 tumor, FIG. 5) was “accumulation of the conjugate, retention of the conjugate and sustained release of the payload over time”, the IC50 [1, 9] was 3.94 µM and the IC50 [2, 10] was 1.95 µM. The “Activity in viability assays relative to payload” value [3] was “retained activity similar to PI-103 payload”, the Caspase-9 signal (Caspase-9) was “appears to retain activity similar to payload (PI-103) and ligand (ganetespib)” and the “Concentrations in tumors over time” value [8] was “accumulation of the conjugate, retention of the conjugate and sustained release of the payload over time”. For the same compound, the IC50 [4, 11] was 1.27 µM.

In the case of `COc1c(OCCCN2CCOCC2)ccc2c1N=C(NC(=O)c1cnc(N)nc1)N1CCN=C21` [BAY80-6946, Copanlisib, reference compound], the IC50 [1, 14] is reported as 3.42 µM, the IC50 [2, 15] is reported as 0.62 µM and the IC50 [4, 16] is reported as 0.13 µM.

In the case of `CC(C)c1cc(-c2nnc(O)n2-c2ccc(CN3CCN(CCC(C)(C)SSc4ccc(COC(=O)N(CCN(C)C)Cn5nc(Cc6ccc(F)c(C(=O)N7CCN(C(=O)C8CC8)CC7)c6)c6ccccc6c5=O)cc4)CC3)cc2)c(O)cc1O` [Compound 8], the “Release of olaparib in plasma and tumor” value [5] is reported as “release olaparib in plasma and tumor”, the half-life [5, 12] is reported as 2760 min and the half-life [5, 13] is reported as 1440 min.

With `CC(C)c1cc(-c2nnc(O)n2-c2ccc3c(ccn3CCC3CCN(C(=O)Oc4cccc(-c5nc(N6CCOCC6)c6oc7ncccc7c6n5)c4)CC3)c2)c(O)cc1O` [Compound 10] the IC50 [1, 19] was ~15500 µM, the IC50 [2, 15] was ~3220 µM and the “Activity in viability assays relative to payload” value [3] was “appeared to lose activity”. For the same compound, the Caspase-9 signal (Caspase-9) was “Lack or decrease in signal”, the IC50 [4, 16] was 40.4 µM and the IC50 [4, 21] was ~9160 µM. For the same compound, the “Stability in plasma versus tumor homogenates” value ([6]; 37° C.) was “less stable in plasma than in tumor homogenates” and the “Cleavage of carbamate groups” value ([6]; plasma) was “cleaved in plasma by carboxylesterase”.

With `COc1ccc(-c2cc3c(C)nc(N)nc3n([C@H]3CC[C@H](OCCO)CC3)c2=O)cn1` [PF-04691502, reference compound] the IC50 [1, 14] was 45.4 µM, the IC50 [1, 19] was 11.3 µM and the IC50 [2, 15] was 8.98 µM. The IC50 [2, 20] was 3.53 µM, the IC50 [4, 16] was 3.36 µM and the IC50 [4, 21] was 2.63 µM.

Reference: US11241500B2, “HSP90-targeting conjugates and formulations thereof” (TARVEDA THERAPEUTICS, INC., priority 2016, dated 2022)
